Reference: patent publication US20250313879A1, “Fluorescent Probe for Detecting Peptide Bond Hydrolase” (The University of Tokyo, priority 2022, published 2025)
≈ marks a conversion by molar mass, not a printed value.

Columns and labels:
[1] = test system: aminopeptidase activity in human plasma sample; test: Enzyme activity assay in microdevice with human plasma, aminopeptidase probes; assay type: biochemical; settings: 50 μM probe, 37° C. for 2 hours
Experimental: • 1. Ala-sHMRG as a fluorescent probe for detecting aminopeptidase activity was diluted with an assay buffer to 100 μM. The composition of the assay buffer is 100 mM HEPES-NaOH (pH 7.4), 1 mM MgCl2, 0.1% BSA, 1 mM DTT, 1 mM Triton X-100, • 2. Next, a human plasma sample was diluted by 500 times with the above assay buffer, and mixed in an equal amount with the diluted solution of the probe. At this time, the final concentrations of both are 50 μM for Ala-sHMRG and 1,000 fold dilution for the human plasma sample. • 3. The mixed solution of both was then added to a microdevice, followed by the addition of sealing oil to enclose the solution in each well. • 4. The microdevice in which the solution was enclosed was incubated at 37° C. for 4 hours, and then the fluorescence intensity of each well was measured with a fluorescence microscope.
• 1. Leu-sHMRG as a fluorescent probe for detecting aminopeptidase activity was diluted with an assay buffer to 100 μM. The composition of the assay buffer is 100 mM HEPES-NaOH (pH 7.4), 1 mM MgCl2, 1 mM DTT, 3 mM Triton X-100. • 2. Next, a human plasma sample was diluted by 2,500 times with the above assay buffer, and mixed in an equal amount with the diluted solution of the probe. At this time, the final concentrations of both are 50 μM for Leu-sHMRG and 5,000 fold dilution for the human plasma sample. • 3. The mixed solution of both was then added to a microdevice, followed by the addition of sealing oil to enclose the solution in each well. • 4. The microdevice in which the solution was enclosed was incubated at 37° C. for 4 hours, and then the fluorescence intensity of each well was measured with a fluorescence microscope.
(§1) • 5. Met-sHMRG as a fluorescent probe for detecting aminopeptidase activity was diluted with an assay buffer to 100 μM. The composition of the assay buffer is 100 mM HEPES-NaOH (pH 7.4), 1 mM MgCl2, 1 mM CaCl2, 1 mM DTT, 3 mM Triton X-100. • 6. Next, a human plasma sample was diluted by 500 times with the above assay buffer, and mixed in an equal amount with the diluted solution of the probe. At this time, the final concentrations of both are 50 μM for Met-sHMRG and 1,000 fold dilution for the human plasma sample. • 7. The mixed solution of both was then added to a microdevice, followed by the addition of sealing oil to enclose the solution in each well. • 8. The microdevice in which the solution was enclosed was incubated at 37° C. for 2 hours, and then the fluorescence intensity of each well was measured with a fluorescence microscope.
as §1, with “• 9. Tyr-sHMRG” for “• 5. Met-sHMRG”, “• 10.” for “• 6.”, “for Tyr-sHMRG” for “for Met-sHMRG”, “• 11.” for “• 7.”, “• 12.” for “• 8.”, “for 4” for “for 2”
• 1. Lys-sHMRG as a fluorescent probe for detecting aminopeptidase activity was diluted with an assay buffer to 100 μM. The composition of the assay buffer is 100 mM HEPES-NaOH (pH 7.4), 1 mM MgCl2, 1 mM CaCl2, 1 mM DTT, 3 mM Triton X-100. • 2. Next, a human plasma sample was diluted by 10,000 times with the above assay buffer, and mixed in an equal amount with the diluted solution of the probe. At this time, the final concentrations of both are 50 μM for Lys-sHMRG and 20,000 fold dilution for the human plasma sample. • 3. […]

CD13 = test: Diagnostic experiment of pancreatic cancer utilizing single-molecule enzyme activity of CD13; assay type: biochemical, human; settings: patients with pancreatic cancer compared with healthy subjects; 50 μM probe, plasma 20,000 fold dilution, 37° C. 2 hours
Experimental: In order to detect the single-molecule enzyme activity of CD13, an experiment to verify the availability of a probe to which […] is bonded as a reaction point (in General Formula (I) or (II), an alanine residue was introduced as —CO—R0 or —CO—R^10) to detect a pancreatic cancer biomarker was performed in the following procedures. • 1. Ala-sSiR as a CD13 detecting probe was diluted with an assay buffer to 100 μM. The composition of the assay buffer is 100 mM HEPES-NaOH (pH 7.4), 1 mM MgCl2, 1 mM CaCl2), 1 mM DTT, 3 mM Triton X-100. • 2. Next, human plasma samples collected from 30 patients with pancreatic cancer and 30 healthy subjects were each diluted by 10,000 times with the above assay buffer, and mixed in an equal amount with the diluted solution of Ala-sSiR. […] The microdevice in which the solution was enclosed was incubated at 37° C. for 2 hours, and then the fluorescence intensity of each well was measured with a fluorescence microscope.
Specifically, in this example, an ROC curve for determination based on the enzyme activity of CD13 determined based on the proportion of wells with a luminance of 2500 AU or more is created, and when a threshold is subtracted at the time when the number of wells of a signal is 3%, the sensitivity is 27% and the specificity is 100% (the right view of FIG. 3). […]

aminopeptidase A [2] = target: T1, aminopeptidase A (Homo sapiens, UniProt Q07075); test: Signal/noise ratio of enzymolysate in microdevice; assay type: biochemical
T1 sequence (Q07075 whole entry, species assumed): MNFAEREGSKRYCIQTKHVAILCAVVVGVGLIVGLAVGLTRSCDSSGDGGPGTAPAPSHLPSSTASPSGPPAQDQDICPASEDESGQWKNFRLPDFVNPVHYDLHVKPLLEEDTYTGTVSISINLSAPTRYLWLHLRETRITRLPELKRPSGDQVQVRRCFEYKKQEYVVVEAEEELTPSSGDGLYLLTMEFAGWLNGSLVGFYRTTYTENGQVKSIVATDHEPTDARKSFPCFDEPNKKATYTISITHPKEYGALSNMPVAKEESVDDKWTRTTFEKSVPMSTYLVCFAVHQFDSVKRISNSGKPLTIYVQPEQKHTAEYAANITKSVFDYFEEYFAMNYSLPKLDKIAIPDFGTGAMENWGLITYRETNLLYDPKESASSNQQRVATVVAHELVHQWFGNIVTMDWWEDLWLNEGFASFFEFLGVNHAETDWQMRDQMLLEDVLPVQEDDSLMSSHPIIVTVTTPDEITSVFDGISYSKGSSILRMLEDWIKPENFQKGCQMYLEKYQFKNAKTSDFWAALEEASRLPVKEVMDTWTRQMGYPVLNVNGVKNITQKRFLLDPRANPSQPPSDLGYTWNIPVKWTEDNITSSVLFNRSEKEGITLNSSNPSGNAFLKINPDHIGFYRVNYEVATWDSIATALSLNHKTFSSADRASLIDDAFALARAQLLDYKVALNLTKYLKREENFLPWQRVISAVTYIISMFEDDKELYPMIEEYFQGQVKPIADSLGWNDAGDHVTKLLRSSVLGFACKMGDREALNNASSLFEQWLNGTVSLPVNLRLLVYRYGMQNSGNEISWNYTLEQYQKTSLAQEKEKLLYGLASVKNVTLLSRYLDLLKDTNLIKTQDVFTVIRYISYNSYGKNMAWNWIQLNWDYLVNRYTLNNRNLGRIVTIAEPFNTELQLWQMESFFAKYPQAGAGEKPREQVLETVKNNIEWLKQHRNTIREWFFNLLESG
Experimental: (§2) For two types of compounds Glu-sSiR (PB206/Example 12) and GP-sHMRG (PB109/Example 7), the signal/noise ratios of the enzymolysates before and after the enzyme reaction in the cuvette and the microdevice were each measured as follows. In the following experiments, the composition of the assay buffer is 100 mM HEPES-NaOH (pH 7.4), 1 mM MgCl2, 1 mM CaCl2), […].
For Glu-sSiR, three kinds of solutions of (i) only an assay buffer, (ii) 30 μM of Glu-sSiR, and (iii) 30 μM of Glu-sSiR and 0.2 ng/mL of aminopeptidase A were prepared, and each solution was added to a microdevice, followed by the addition of sealing oil to enclose the solution in each well. The microdevice in which the solution was enclosed was incubated at 37° C. for 4 hours, and then the fluorescence intensity of each well was measured with a fluorescence microscope. When a difference between the average values of the fluorescence intensities of the respective wells in (ii) and (i) was defined as noise, a difference between the average value of the fluorescence intensities of the wells in which the enzyme was encapsulated in (iii) and the average value of the fluorescence intensities of the respective wells in (i) was defined as a signal, and a ratio of these values was calculated as the signal/noise ratio of the enzymolysate, the ratio was 8.3 times (see FIG. 8, panel A). […]

[3] = Solubility in sealing oil (hexadecane); assay type: physicochemical; settings: oil or lipid, kinetic from dmso stock, room temperature (25° C.), three tests, average value±standard deviation
Experimental: That is, 1 μL of a 10 mM DMSO solution of the test compound was added with respect to 100 μL of hexadecane as sealing oil, and the mixture was sonicated and suspended at room temperature (25° C.) for 1 minute. Thereafter, the solution was centrifuged for 30 seconds, 50 μL of the supernatant was collected and mixed with 100 μL of methanol, and a compound dissolved in hexadecane was extracted. Thereafter, the methanol solution from which the compound was extracted was analyzed by ultra performance liquid chromatography (UPLC) (eluent: A/B=95/5>5/95, A: 0.1% formic acid-containing 100% H2O, B: 0.1% formic acid-containing 100% CH3CN), and the concentration of the compound in the methanol solution was calculated from the peak area. In the calculation of the solution concentration using the UPLC peak area, solutions having a plurality of concentrations were prepared and measured for each compound, then a calibration curve was prepared (FIG. 5), and the calculation was performed according to the calibration curve.

aminopeptidase A [4] = target: T1, aminopeptidase A; test: Signal/noise ratio of enzymolysate in cuvette; assay type: biochemical; settings: 10 μM probe, 170 ng/mL aminopeptidase A, 25° C. 11 hours, @616 nm
Experimental: as §2
Glu-sSiR was diluted with an assay buffer so as to be 10 μM, then added to a quartz cuvette, and the fluorescence spectrum before the enzyme reaction was measured with a fluorometer (excitation wavelength: 570 nm). Thereafter, aminopeptidase A was added so that the concentration in the solution was 170 ng/mL, the solution was incubated at 25° C. for 11 hours, and then the fluorescence spectrum was measured. The fluorescence spectra before and after the enzyme reaction were compared, the ratio of the values at a wavelength at which the fluorescence intensity was maximized was calculated as the signal/noise ratio of the enzymolysate, the ratio was 32 times (@616 nm) (see FIG. 7A).

SMILES: Cc1ccc(S(=O)(=O)O)cc1C1=C2C=CC(=N)C=C2[Si](C)(C)c2cc(NC(=O)[C@H](C)N)ccc21 [Ala-sSiR]
- fluorescence intensity of wells in which the reacting enzyme was enclosed ([1]; human plasma 20,000 fold dilution): increase in fluorescence intensity was observed
- number of wells in which the luminance is 2,500 AU or more (CD13 considered enclosed) (CD13): significant increase

SMILES: Cc1ccc(S(=O)(=O)O)cc1C1=C2C=CC(=N)C=C2[Si](C)(C)c2cc(NC(=O)[C@@H](N)CCC(=O)O)ccc21 [Glu-sSiR]
- ratio of the signal/noise ratio in the microdevice to the signal/noise ratio in the cuvette (aminopeptidase A [2]; aminopeptidase A): 0.26
- signal/noise ratio of the enzymolysate (aminopeptidase A [2]; microdevice, 30 μM probe, 0.2 ng/mL aminopeptidase A, 37° C. 4 hours): 8.3 times
- solubility at 1 min [3]: 0.3 ± 0.096 µM (≈ 0.166 µg/mL)
- fluorescence intensity of wells in which the reacting enzyme was enclosed ([1]; human plasma 1,000 fold dilution): increase in fluorescence intensity was observed
- signal/noise ratio of the enzymolysate (aminopeptidase A [4]): 32 times
